Data on three compounds can be found in patent publication US7781580B2, “Stilbene derivatives as new cancer therapeutic agents” (Virginia Commonwealth University, priority 2007, dated 2010).

The structures appear in SMILES notation. Where two headings read alike, the source gives them in different places.

Data set [1] is described as follows: water solubility of stilbene and carbamate prodrug (salts and free base). The data set is classed as physicochemical. As to the method:
Stilbene prodrugs may be made by attaching to a stilbene derivative of interest (e.g. a stilbene derivative with anti-tumor activity), chemical groups (or moieties) that render the stilbene derivative more water soluble than before such a modification is carried out. By “water soluble” we mean that more than 20 mg compound can be fully dissolved in 1 mL of water. Further, the chemical groups that are attached to the stilbene derivative to make the derivative water soluble are labile (i.e. removable) in that, upon exposure to in vitro or in vivo hydrolyzing conditions, the chemical groups are removed or dissociated from the stilbene derivative by hydrolysis, releasing the active, anti-tumor form of the stilbene derivative. The chemical groups which are attached may themselves be biologically active, and are, at least, not biologically injurious to cells or mammals. […] As illustrated, morfolinoethyl-urea, morfolinoethyl-carbamate and triethylene glycol (TEG) groups (5a, 5b, 5c, respectively) may be used for this purpose.

In a further data set the test system is tumor cell proliferation. Kind of data set: suppression of tumor cell proliferation, cell line not stated. The class given is cell-based. The note with it: read-out: IC50, suppressing tumor cell proliferation. As to the method:
(§1) Various cancer cell lines were grown in 96-well plates for drug sensitivity assays. Once cells achieved 50% confluence, the incubation media was changed to the same cell growth media with different concentrations of the tested compounds or vehicle alone. Cells were then incubated for 48 hours before the cell growth inhibition study. To determine the degree of cell growth inhibition, 1/10 volume of Alamar Blue™ solution was added to each well and optical density (OD) at 570 and 600 nm was determined. The percentage of growth inhibition was calculated according to the manufacturer's formula as follows: The percentage of growth is [(117216×A570)−(80586×A600)]/[(117216×A^o570)−(80586×A^o600)]×100. In this formula, A570 is the absorbance of the treated samples at 570 nm; A600 is the absorbance of the treated samples at 600 nm; A^o570 is the absorbance of the […] samples at 570 nm; and A^o600 is the absorbance of the untreated samples at 600 nm. The two constants, 117216 and 80586, are the extinction coefficients of Alamar Blue™ at 570 and 600 nm respectively. Each concentration was repeated in triplicate to minimize the error.

Data set [2] has as its system UCI101 ovarian cancer cells. As to the kind of experiment: Alamar Blue cell growth inhibition, UCI101. The data set is classed as cell-based. The note with it: UCI101, 48 hours. The protocol: Cell growth was measured by AlamarBlue™ staining and the percentage of cell growth inhibition was calculated and compared with the control cells that were treated with 0.1% DMSO, the vehicles for the stilbene compounds.
Cells were treated with the tested drug for 2 days before analysis of cell growth by Alamar Blue™ staining. Cells treated with 0.1% DMSO were used as control and set as 100%.
(a) In vitro sensitivity of UCI101 cells toward three potential stilbene prodrugs, 5a-c, was tested in 96-well plates using Alamar Blue™ assays to determine cell growth inhibition. […] (b) 5b induces cell cycle change and apoptosis in UCI101 cells. Cells were incubated with 5b at 1, 3, 10 μM for 16 hours followed by PI staining and flow cytometry analysis. A subG0/1 population, representing apoptotic cells, appeared along with a decrease of the G1/G2 ratio after cells were treated with 3 μM 5b. Higher concentration (10 μM) of 5b completely killed cells, as was the case with stilbene 4a at […]. (c) Cells treated with stilbene 4a and 5b were stained with phospho-histone 3B, a mitotic marker. The positive signals of phospho-histone 3B were shown in green and nuclei were stained with DAPI in blue. […] (d) In vivo efficacy of 5b compared with stilbene 4a. Nude mice were injected with UCI101 ovarian cancer cells and treated with 7 doses of 5b,c or stilbene 4a every 2-3 days. Tumor volume was calculated and plotted against days.
as §1
(§2) We first tested the cytotoxic effect of various stilbene derivatives for their in vitro efficacy of suppressing tumor cell proliferation. Cells were first plated in 96-well plates at 50% confluence and treated with 0, 0.01, 0.03, 0.1, 0.3, 1.0, 3.0, 10 μM concentrations of stilbene derivatives for 48 hours in triplicate. Alamar Blue™ reagent was added into each well at 1/10 volume and incubated for 2 hours before quantification of the absorbance at 570 and 600 nm.
(Resazurin is reduced to fluorescent resorufin, in cell work by metabolically active cells.)

A further data set concerns UCI101 cells. As to the kind of experiment: immunofluorescent staining of tubulin, UCI101. The data set is classed as cell-based. The note with it: CA4 10 nM, stilbene 4a 100 nM, 5b 3 μM; 16 hours. From the text: Nuclei were stained with DAPI.
For a further data set, the system named is Chk2−/− cells. As to the kind of experiment: cell cycle analysis, Chk2-/- MDA-MB231 derivative. The class given is cell-based. The conditions noted are these: 16 hours. The protocol: (§3) Cells were treated with various concentrations of stilbene 4a or CA4 for 16 hours followed by PI staining and FACscan analysis. […] A unique feature of stilbene 4a was noted when cells were treated with 30 nM.
(§4) Due to the structural similarity between stilbene 4a and CA4, we investigated the difference in the biological activity of these two compounds in MDA-MB231 breast cancer cells and their Chk2−/− derivatives. […] MDA-MB231 cells were treated with 10 nM stilbene 4a or 1 nM CA4. […] However, a difference in cell cycle change was observed following treatment with 30 nM of stilbene 4a versus 3 nM of CA4. […] This was also the case for cells treated with 100 nM stilbene 4a. A significant subG1/0 population was also noted. […] One possible effect could be a DNA damage response, which is a common mechanism of multiple chemotherapeutic agents but not one of pure microtubule-interfering agents such a paclitaxel or vincristine. […] We then obtained conditional Chk1−/− and Chk2−/− cells, which were derived from the same MDA-MB231 cells for the same flow cytometry analysis. […] In contrast, Chk2−/− cells were more sensitive to stilbene 4a. […] This mechanism is not obvious in higher drug concentrations at which the G2 arrest from microtubule interference is dominant. Therefore, in addition to their microtubule interfering effect, stilbenes have another mechanism to induce cell death. Thus, the use of a Chk2 inhibitor in combination with stilbenes may be a viable approach to enhancing the beneficial therapeutic effects of stilbenes.

Data set [3] concerns MDA-MB231 breast cancer cells. As to the kind of experiment: Alamar Blue cell growth inhibition, MDA-MB231. The data set is classed as cell-based. The protocol: Cell growth was measured by Alamar Blue™ staining and the percentage of cell growth inhibition was calculated and compared with control cells that were treated with 0.1% DMSO, the vehicles for the stilbene compounds.
as §1, §2

In another data set the test system is MDA-MB231 cells. Kind of data set: immunofluorescent staining of tubulin, MDA-MB231. The data set is classed as cell-based. The conditions noted are these: CA4 10 nM, stilbene 4a 100 nM, vincristine 100 nM, 5b 3 μM; 16 hours. The source says: Nuclei were stained with 4′,6-diamidino-2-phenylindole (DAPI). Control cells show the reticular pattern of the microtubule network.

For data set [4], the system named is MDA-MB231 breast cancer cells. As to the kind of experiment: cell cycle analysis, MDA-MB231. The class given is cell-based. The note with it: 16 hours. The protocol: as §3, §4
For data set [5] the following is noted: clinical studies; cited from earlier work.
Data set [6] concerns SNU423 hepatocellular carcinoma cells. Kind of data set: Alamar Blue cell growth inhibition, SNU423. The class given is cell-based. The gist of the method:
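Cells at 50% confluence were treated for 48 h in triplicate with 0-10 μM compound or 0.1% DMSO vehicle. Alamar Blue was added at 1/10 volume for 2 h, and absorbance at 570 and 600 nm gave % growth via the manufacturer's extinction-coefficient formula relative to vehicle controls.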

The subject of data set [7] is MiaPaCa2 pancreatic cancer cells. As to the kind of experiment: Alamar Blue cell growth inhibition, MiaPaCa2. The class given is cell-based. As to the method: as §1, §2
For data set [8], the system named is UCI101 ovarian cancer cells. Kind of data set: Western blot of signal transduction events, UCI101. The data set is classed as cell-based. The conditions noted are these: 36 hours. The protocol:
All these agents are microtubule interfering agents but with different binding sites. Cells were harvested at 0, 4, 8, 16 and 36 hours after drug treatment for Western blot analysis. […] Phosphorylation of both Cdc25C and Cdc2 disappeared after 16 hours and slightly recovered at 36 hours. […] Akt phosphorylation decreased after 16 hours of treatment.
In order to understand the mechanism of resistance of stilbenes, various signal transduction pathways were investigated to examine how cells respond to stilbene treatment. UCI101 ovarian cancer cells were treated with stilbenes 4a, 4c or paclitaxel (Taxol) at 0.1 μM for 0, 4, 8, 16 and 36 hours. Cells were harvested for Western blotting. Changes in the kinases involved in cell cycle progression from G2-M transition were first determined in Cdc2, Cdc25c, and mitotic spindle check point regulator BubR1. […] 36 hours after treatment, rephosphorylation of Cdc2 was observed. […] The higher molecular weight isomer of Cdc25c, the mitotic form, increased at 16 and 36 hours. […] A similar study was then performed with other microtubule interfering agents such as combretastatin A4, 13a and vincristine for comparison. A similar trend was observed among these three microtubule interfering agents (FIG. 18).
(In western blotting, separated proteins are transferred to a membrane and probed.)

Data set [9] relates to SKOV3 ovarian cancer cells. As to the kind of experiment: Alamar Blue cell growth inhibition, SKOV3. The class given is cell-based. As to the method:
Cells were incubated with various concentrations of the compounds for 48 hours. Cell growth was measured by Alamar Blue™ staining and the percentage of cell growth inhibition was calculated and compared with the control cells that were treated with 0.1% DMSO, the vehicle for the stilbene compounds.
as §1

Another data set deals with Chk1−/− cells. As to the kind of experiment: cell cycle analysis, Chk1-/- MDA-MB231 derivative. The data set is classed as cell-based. As to the method:
as §4

On to `COc1cc(/C=C\c2ccc(OC)cc2N)cc(OC)c1.O=C(O)C(=O)O` [4b, (Z)2-[2-(3,5-Dimethoxy-phenyl)-vinyl]-5-methoxy-phenylamine oxalate], for which the “water solubility (in words)” value in data set [1] is listed as “enhanced by the formation of an oxalate salt”. For the same compound, the IC50 with tumor cell proliferation is 80 nM. Besides, the “relative potency / activity” value in data set [2] is listed as “less active than stilbene 4a”.

On to `COc1ccc(/C=C\c2cc(OC)c(OC)c(OC)c2)cc1O` [combretastatin A4, (Z)-2-Methoxy-5-[2-(3,4,5-trimethoxy-phenyl)-vinyl]-phenol, reference compound], for which the microtubule pattern entry in the data set on UCI101 cells is “complete disruption of microtubules”; in the data set on MDA-MB231 cells, “did not completely disrupt microtubule formation”. Besides, the “change of effective concentration versus MDA-MB231” value in the data set with Chk2−/− cells was “decreased by three fold”. For the same compound, the “relative potency” value in data set [3] (MDA-MB231) was “most effective”; in [6] (SNU423) it was “most potent compound”; in data set [7] (MiaPaCa2) it was “most effective”. Further, the “cell cycle change at 10 nM stilbene 4a or 1 nM CA4” value in [4] was “No change was observed”. Moreover, the “dose above which cardiac toxicity, neurotoxicity and tumor pain were observed” value in [5] is given as “higher than 68 mg/m^2”. The “relative potency / activity” value in data set [2] was “most active compound”. In addition, the “effective concentration, blocking cell proliferation” value in data set [6] (SNU423, 48 hours) is 0.003 µM. Besides, the “phosphorylation of Chk1” value in data set [8] is “do not cause more phosphorylation of Chk1”. Also, the effective concentration in data set [9] (SKOV) was found to be 10 nM. Besides, in [9] (SKOV3, 48 hours), the “effective / active concentration” value worked out at 0.01 µM. Besides, the “sensitivity versus MDA-MB231” value with Chk1−/− cells is “more resistant”.

Take `COc1cc(O)cc(/C=C\c2ccc(OC)c(N)c2)c1.Cl` [10d, (Z)-3-[2-(3-Amino-4-methoxy-phenyl)-vinyl]-5-methoxy-phenol, hydrochloride]: the effective concentration result in data set [3] (MDA-MB231, 48 hours) was “above 0.3 μM”; in data set [7] (MiaPaCa2, 48 hours), “above 0.3 μM”. Besides, the IC50 is 1000 nM with tumor cell proliferation (cell line not stated) and 300 to 1000 nM in data set [6] (Homo sapiens, SNU-423, 48 h, read-out: IC50 (50% growth inhibition), SNU423, 48 hours). Also, in [2], the “relative potency / activity” value is “less active than stilbene 4a”.
